The text below walks through data of patent US6387647B1 (priority 1993, dated 2002).

Data set [1] relates to Saccharomyces cerevisiae strain DCX45(pML82)-1B (disrupted cytochrome P450 reductase gene) versus strain STX429-2A (erg6). The data set is classed as cell-based. To be noted: 20 μg per disk; YEPD agar, 30° C., two days; differential of approximately 8 mm or more scored as active. As for the experimental part:
Liquid yeast extract, peptone and dextrose (YEPD) media is first prepared by mixing the following ingredients obtained from Difco
and autoclaving at 20 lbs for 15 min. Solidified YEPD media is prepared using the above ingredients, except that
(§1) Overnight cultures of S. cerevisiae strain DCX45-(pML82)-1B from Example 1 above and strain STX429-2A obtained from the Yeast Genetics Stock Center are grown in liquid YEPD media shaken at 30° C. to an OD600 of ˜5 or greater.
(§2) Test media are prepared by combining separately 0.5 parts STX429-2A inoculum to 100 parts of warm YEPD agar media and 2 parts of DCX45(pML82)-1B to 100 parts of warm YEPD agar media. Plates for each culture are poured. Test samples are prepared on disks in duplicate, and each is placed on a STX429-2A plate and a DCX45(pML82)-1B plate, testing 20 μg of test sample per disk. A ¼″ disk containing 10 μg of dinaconazole is used as a positive control on each plate.
(§3) The plates are incubated at 30° C. for two days and then examined to compare activity on the two strains. Actives produce a larger zone on the DCX45(pML82)-1B plate than on the STX429-2A plate. Only compounds producing a differential of approximately 8 mm or more are scored as active.

In the next data set the test system is erg6 mutants. As to conditions: cited from earlier work.
In data set [2] the test system is DCX45(pML82)-1B (disrupted cytochrome P450 reductase gene). Briefly: disk sensitivity on YEPD of LEU+ spores / strain DCX45(pML82)-1B (Example 1). To be noted: for sensitivity of LEU+ cultures compared with leu− cultures: spores plated on YEPD, disks containing the inhibitors.
For a further data set, the system named is DCX45 (pML82)-1B. Briefly: imidazole sensitivity (limit of detection) on cytochrome P450 reductase disrupted strain. The data set is classed as cell-based, Saccharomyces cerevisiae. As for the experimental part: as §1, §2, §3
The imidazole sensitivity of these compounds in the strains is as follows: […]

The test system of the next data set is STX429-2A (erg 6). To be noted: strain STX429-2A (erg 6). As for the experimental part: as §2
The plates are incubated at 30° C. for two days and then examined to compare activity on the two strains. Actives produce a larger zone on the DCX45(pML82)-1B plate than on the STX429-2A plate.

Data set [3] concerns cytochrome P450 reductase yeast mutants (TSY11-6C, TSY21). To be noted: cited from earlier work.

Regarding mevinolin [lactonized mevinolin], in data set [1], the “activity in the cytochrome P450 reductase screen (larger zone on the DCX45(pML82)-1B plate than on the STX429-2A plate)” value is given as “no response”.

For `Clc1ccc(COC(Cn2ccnc2)c2ccc(Cl)cc2Cl)c(Cl)c1` (centres unmarked) [miconazole], the “activity in the cytochrome P450 reductase screen (larger zone on the DCX45(pML82)-1B plate than on the STX429-2A plate)” value in data set [1] is “active”.

For the molecule `C[C@@H]1C[C@@H]([C@H](O)CC2CC(=O)NC(=O)C2)C(=O)[C@@H](C)C1` [cycloheximide], in the data set on erg6 mutants, the “sensitivity or resistance of erg6 mutant strains” value is “hypersensitivity”.

As to `C/C=C/C/C=C/CCC(=O)[C@H]1O[C@H]1C(N)=O` [cerulenin], the “sensitivity of strain DCX45(pML82)-1B” value in data set [2] was “increased sensitivity”.

`CC(C)(C)C(O)/C(=C/c1ccc(Cl)cc1Cl)n1cncn1` (centres unmarked) [dinaconazole]: the “activity in the cytochrome P450 reductase screen (larger zone on the DCX45(pML82)-1B plate than on the STX429-2A plate)” value in data set [1] is “active”. Also, the “sensitivity of LEU+ cultures compared with leu− cultures” value in data set [2] was “more sensitive”. Further, the “Limit of Detection” value in the data set with DCX45 (pML82)-1B is recorded as 2 ng; with STX429-2A (erg 6), 50 ng.

As for `Clc1ccc(COC(Cn2ccnc2)c2ccc(Cl)cc2Cl)cc1` (centres unmarked) [econazole], the “activity in the cytochrome P450 reductase screen (larger zone on the DCX45(pML82)-1B plate than on the STX429-2A plate)” value in data set [1] is “active”. Also, the “sensitivity of LEU+ cultures compared with leu− cultures” value in data set [2] is “more sensitive”. For the same molecule, the “Limit of Detection” value is 2 ng with DCX45 (pML82)-1B and 50 ng in the data set with STX429-2A (erg 6).

Turning to `CC(=O)N1CCN(c2ccc(OCC3COC(Cn4ccnc4)(c4ccc(Cl)cc4Cl)O3)cc2)CC1` (centres unmarked) [ketoconazole], in data set [1], the “activity in the cytochrome P450 reductase screen (larger zone on the DCX45(pML82)-1B plate than on the STX429-2A plate)” value is listed as “active”. Besides, in data set [3] (disrupted cytochrome P450 reductase genes), the “sensitivity of strains TSY11-6C and TSY21” value was “sensitive”. In addition, the “increase in sensitivity of cytochrome P450 reductase yeast mutants” value in data set [3] (mutants lacking the cytochrome P450 reductase gene) is reported as 200 fold. Also, in data set [2], the “sensitivity of strain DCX45(pML82)-1B” value is “supersensitivity” and the “sensitivity of LEU+ cultures compared with leu− cultures” value is “more sensitive”. The “Limit of Detection” value with DCX45 (pML82)-1B is listed as 5 ng.

For `C[C@@H]1[C@H](O)[C@@H](C)/C=C/C=C/CC/C=C/C=C/C=C/C=C/C(O[C@H]2O[C@H](C)[C@@H](O)[C@H](N)[C@@H]2O)CC2O[C@](O)(CC(O)C(O)CCC(O)CC(O)CC(O)CC(=O)O[C@H]1C)CC(O)C2C(=O)O` (some centres unmarked) [nystatin], the “sensitivity or resistance of erg6 mutant strains” value in the data set on erg6 mutants is “resistance”.

`CN1C(=O)[C@]23CC4=CC=C[C@H](O)[C@H]4N2C(=O)[C@@]1(CO)SS3` [gliotoxin]: the “activity in the cytochrome P450 reductase screen (larger zone on the DCX45(pML82)-1B plate than on the STX429-2A plate)” value in data set [1] is on record as “positive”.
